Laboratory results as given in PubChem BioAssay AID1745844 (Carcinogenic Potency Database (CPDB), 2022).
Calls of active or inactive are those of the source. No rule for the calls is given here.

System: rodent lifetime carcinogenesis bioassay, tumor incidence TD50
Experiment: chronic cancer bioassays in animals – CPDB, compiled studies (AID 1745844)

With `CCc1cc(C(N)=S)ccn1` the TD50 (mouse, strain B6C3F1, females, in feed, site: any site (literature study), lesion: several types, types named in the paper, dosed 78 weeks, study length 104 weeks) was 450 mg/kg/day (inactive), the carcinogen call (mouse, strain B6C3F1, males, in feed, site: any site (literature study), lesion: several types, types named in the paper, dosed 78 weeks, study length 104 weeks) was “negative (inactive)” and the TD50 (mouse, strain BALB/c, females, by gavage, site: liver, lesion: papillary carcinoma, dosed 50 weeks, study length 69 weeks) was 240 mg/kg/day (inactive). The TD50 (mouse, strain BALB/c, females, by gavage, site: lung, lesion: adenoma, dosed 50 weeks, study length 69 weeks) was 124 mg/kg/day (inactive), the TD50 (mouse, strain BALB/c, females, by gavage, site: thyroid gland, lesion: carcinoma, dosed 50 weeks, study length 69 weeks) was 69.3 mg/kg/day and the carcinogen call (rat, strain Fischer 344, females, in feed, site: any site (literature study), lesion: several types, types named in the paper, dosed 78 weeks, study length 104 weeks) was “negative (inactive)”. For the same compound, the TD50 (rat, strain Fischer 344, females, in feed, site: liver, lesion: hepatocellular adenoma + hepatocellular carcinoma + neoplastic nodule, dosed 78 weeks, study length 104 weeks) was 508 mg/kg/day, the carcinogen call (rat, strain Fischer 344, males, in feed, site: any site (literature study), lesion: several types, types named in the paper, dosed 78 weeks, study length 103 weeks) was “negative (inactive)” and the TD50 (rat, strain Fischer 344, males, in feed, site: liver, lesion: hepatocellular adenoma + hepatocellular carcinoma + neoplastic nodule, dosed 78 weeks, study length 103 weeks) was 623 mg/kg/day.

Compound `CC(COc1ccc(C(C)(C)C)cc1)OS(=O)OCCCl` (stereo unspecified) has a TD50 (mouse, strain B6AKF1, females, oral dosing, site: any site (literature study), lesion: several types, types named in the paper, dosed 80 weeks, study length 80 weeks) of 391 mg/kg/day, a TD50 (mouse, strain B6AKF1, females, oral dosing, site: lung, lesion: adenoma, dosed 80 weeks, study length 80 weeks) of 432 mg/kg/day and a TD50 (mouse, strain B6AKF1, males, oral dosing, site: liver, lesion: hepatoma, dosed 77 weeks, study length 77 weeks) of 15900 mg/kg/day. It also gave a TD50 (mouse, strain B6C3F1, females, oral dosing, site: any site (literature study), lesion: several types, types named in the paper, dosed 77 weeks, study length 77 weeks) of 92.7 mg/kg/day, a TD50 (mouse, strain B6C3F1, females, oral dosing, site: liver, lesion: hepatoma, dosed 77 weeks, study length 77 weeks) of 973 mg/kg/day and a TD50 (mouse, strain B6C3F1, females, oral dosing, site: lung, lesion: adenoma, dosed 77 weeks, study length 77 weeks) of 973 mg/kg/day. The TD50 (mouse, strain B6C3F1, males, oral dosing, site: any site (literature study), lesion: several types, types named in the paper, dosed 80 weeks, study length 80 weeks) was 103 mg/kg/day, the TD50 (mouse, strain B6C3F1, males, oral dosing, site: liver, lesion: hepatoma, dosed 80 weeks, study length 80 weeks) was 158 mg/kg/day and the TD50 (mouse, strain B6C3F1, males, oral dosing, site: liver, lesion: several types, types named in the paper, dosed 80 weeks, study length 80 weeks) was 126 mg/kg/day. For the same compound, the TD50 (rat, strain CFN, both sexes, in feed, site: bile duct, lesion: adenoma, dosed 104 weeks, study length 104 weeks) was 1010 mg/kg/day, the TD50 (rat, strain CFN, both sexes, in feed, site: liver, lesion: hyperplastic nodule, dosed 104 weeks, study length 104 weeks) was 61.8 mg/kg/day and the TD50 (rat, strain Food and Drug Research Laboratories stock rats, both sexes, in feed, site: liver, lesion: several types, types named in the paper, dosed 93 weeks, study length 104 weeks) was 430 mg/kg/day. For the same compound, the TD50 (rat, strain Osborne-Mendel, females, in feed, site: any site (literature study), lesion: benign tumor, dosed 104 weeks, study length 104 weeks) was 31.5 mg/kg/day (inactive), the carcinogen call (rat, strain Osborne-Mendel, females, in feed, site: any site (literature study), lesion: malignant tumor, dosed 104 weeks, study length 104 weeks) was “negative (inactive)” and the carcinogen call (rat, strain Osborne-Mendel, females, in feed, site: any site (literature study), lesion: several types, types named in the paper, dosed 117 weeks, study length 117 weeks) was “negative (inactive)”. For the same compound, the TD50 (rat, strain Osborne-Mendel, females, in feed, site: liver, lesion: hemangioma, dosed 117 weeks, study length 117 weeks) was 256 mg/kg/day (inactive), the carcinogen call (rat, strain Osborne-Mendel, females, in feed, site: liver, lesion: one or several types, types not named, dosed 104 weeks, study length 104 weeks) was “negative (inactive)” and the TD50 (rat, strain Osborne-Mendel, males, in feed, site: any site (literature study), lesion: benign tumor, dosed 104 weeks, study length 104 weeks) was 64.7 mg/kg/day (inactive). For the same compound, the carcinogen call (rat, strain Osborne-Mendel, males, in feed, site: any site (literature study), lesion: malignant tumor, dosed 104 weeks, study length 104 weeks) was “negative (inactive)”, the TD50 (rat, strain Osborne-Mendel, males, in feed, site: any site (literature study), lesion: malignant tumor, dosed 117 weeks, study length 117 weeks) was 101 mg/kg/day (inactive) and the TD50 (rat, strain Osborne-Mendel, males, in feed, site: any site (literature study), lesion: several types, types named in the paper, dosed 117 weeks, study length 117 weeks) was 198 mg/kg/day (inactive). For the same compound, the carcinogen call (rat, strain Osborne-Mendel, males, in feed, site: liver, lesion: one or several types, types not named, dosed 104 weeks, study length 104 weeks) was “negative (inactive)”, the carcinogen call (rat, strain Osborne-Mendel, males, in feed, site: liver, lesion: one or several types, types not named, dosed 117 weeks, study length 117 weeks) was “negative (inactive)” and the TD50 (rat, strain Sprague-Dawley, both sexes, in feed, site: liver, lesion: hyperplastic nodule, dosed 104 weeks, study length 104 weeks) was 760 mg/kg/day. For the same compound, the TD50 (rat, strain Wistar/FDRL, both sexes, in feed, site: bile duct, lesion: adenoma, dosed 104 weeks, study length 104 weeks) was 397 mg/kg/day, the TD50 (rat, strain Wistar/FDRL, both sexes, in feed, site: liver, lesion: hepatocellular carcinoma, dosed 104 weeks, study length 104 weeks) was 1000 mg/kg/day and the TD50 (rat, strain Wistar/FDRL, both sexes, in feed, site: liver, lesion: hyperplastic nodule, dosed 104 weeks, study length 104 weeks) was 79.9 mg/kg/day.

With `CC(C)(C)NCC(O)c1cc(O)cc(O)c1` (stereo unspecified) the TD50 (rat, strain Charles River CD (Sprague-Dawley), females, in feed, site: mesovarium, lesion: leiomyoma, dosed 104 weeks, study length 104 weeks) was 410 mg/kg/day.

`CCBr` was tested, and the TD50 (mouse, strain B6C3F1, females, inhaled, site: any site (literature study), lesion: several types, types named in the paper, dosed 103 weeks, study length 105 weeks) was 571 mg/kg/day, the TD50 (mouse, strain B6C3F1, females, inhaled, site: lung, lesion: alveolar/bronchiolar adenoma + alveolar/bronchiolar carcinoma, dosed 103 weeks, study length 105 weeks) was 5810 mg/kg/day and the TD50 (mouse, strain B6C3F1, females, inhaled, site: uterus, lesion: adenocarcinoma, NOS + adenoma, NOS + squamous-cell carcinoma, dosed 103 weeks, study length 105 weeks) was 535 mg/kg/day. It also gave a TD50 (mouse, strain B6C3F1, females, inhaled, site: uterus, lesion: adenocarcinoma, NOS + adenoma, NOS, dosed 103 weeks, study length 105 weeks) of 596 mg/kg/day, a TD50 (mouse, strain B6C3F1, females, inhaled, site: uterus, lesion: adenocarcinoma, NOS + squamous-cell carcinoma, dosed 103 weeks, study length 105 weeks) of 681 mg/kg/day and a TD50 (mouse, strain B6C3F1, females, inhaled, site: uterus, lesion: adenocarcinoma, NOS, dosed 103 weeks, study length 105 weeks) of 822 mg/kg/day. The TD50 (mouse, strain B6C3F1, females, inhaled, site: uterus, lesion: adenoma, NOS, dosed 103 weeks, study length 105 weeks) was 2610 mg/kg/day, the TD50 (mouse, strain B6C3F1, females, inhaled, site: uterus, lesion: squamous-cell carcinoma, dosed 103 weeks, study length 105 weeks) was 4440 mg/kg/day and the TD50 (mouse, strain B6C3F1, males, inhaled, site: any site (literature study), lesion: several types, types named in the paper, dosed 104 weeks, study length 105 weeks) was 1630 mg/kg/day. It also gave a TD50 (mouse, strain B6C3F1, males, inhaled, site: liver, lesion: hepatocellular adenoma + hepatocellular carcinoma + neoplastic nodule, dosed 104 weeks, study length 105 weeks) of 3670 mg/kg/day, a TD50 (mouse, strain B6C3F1, males, inhaled, site: lung, lesion: alveolar/bronchiolar adenoma + alveolar/bronchiolar carcinoma, dosed 104 weeks, study length 105 weeks) of 1100 mg/kg/day and a TD50 (mouse, strain B6C3F1, males, inhaled, site: lung, lesion: alveolar/bronchiolar carcinoma, dosed 104 weeks, study length 105 weeks) of 2390 mg/kg/day. The TD50 (rat, strain Fischer 344, females, inhaled, site: brain, lesion: glioma, NOS, dosed 104 weeks, study length 106 weeks) was 1020 mg/kg/day, the TD50 (rat, strain Fischer 344, females, inhaled, site: liver, lesion: hepatocellular adenoma + hepatocellular carcinoma + neoplastic nodule, dosed 104 weeks, study length 106 weeks) was 670 mg/kg/day and the TD50 (rat, strain Fischer 344, females, inhaled, site: lung, lesion: alveolar/bronchiolar adenoma, dosed 104 weeks, study length 106 weeks) was 1280 mg/kg/day. The TD50 (rat, strain Fischer 344, males, inhaled, site: adrenal medulla + brain + lung, lesion: pheochromocytoma + pheochromocytoma, malignant + astrocytoma + granulosa-cell tumor, NOS + glioma, NOS + oligodendroglioma + alveola, dosed 104 weeks, study length 106 weeks) was 151 mg/kg/day, the TD50 (rat, strain Fischer 344, males, inhaled, site: adrenal medulla, lesion: pheochromocytoma + pheochromocytoma, malignant, dosed 104 weeks, study length 106 weeks) was 149 mg/kg/day and the carcinogen call (rat, strain Fischer 344, males, inhaled, site: brain, lesion: astrocytoma + glioma, NOS + oligodendroglioma, dosed 104 weeks, study length 106 weeks) was “p”. It also gave a TD50 (rat, strain Fischer 344, males, inhaled, site: brain, lesion: granulosa-cell tumor, NOS, dosed 104 weeks, study length 106 weeks) of 80700 mg/kg/day, a TD50 (rat, strain Fischer 344, males, inhaled, site: liver, lesion: hepatocellular adenoma + hepatocellular carcinoma + neoplastic nodule, dosed 104 weeks, study length 106 weeks) of 2280 mg/kg/day and a TD50 (rat, strain Fischer 344, males, inhaled, site: liver, lesion: neoplastic nodule, dosed 104 weeks, study length 106 weeks) of 1140 mg/kg/day. It also gave a TD50 (rat, strain Fischer 344, males, inhaled, site: lung, lesion: alveolar/bronchiolar adenoma + alveolar/bronchiolar carcinoma, dosed 104 weeks, study length 106 weeks) of 582 mg/kg/day.

Compound `CC1SC(C)N(N=O)C(C)S1` (stereo unspecified) has a TD50 (rat, strain Fischer 344, females, by gavage, site: esophagus, lesion: squamous-cell carcinoma, dosed 43 weeks, study length 90 weeks) of 1.63 mg/kg/day, a TD50 (rat, strain Fischer 344, females, by gavage, site: esophagus, lesion: squamous-cell tumor, dosed 43 weeks, study length 90 weeks) of 0.483 mg/kg/day and a TD50 (rat, strain Fischer 344, females, by gavage, site: liver, lesion: cholangioma, dosed 43 weeks, study length 90 weeks) of 3.58 mg/kg/day. For the same compound, the TD50 (rat, strain Fischer 344, females, by gavage, site: liver, lesion: hepatocellular adenoma, dosed 43 weeks, study length 90 weeks) was 2.61 mg/kg/day and the TD50 (rat, strain Fischer 344, females, by gavage, site: tongue, lesion: squamous-cell tumor, dosed 43 weeks, study length 90 weeks) was 1.53 mg/kg/day.

Compound `c1ccc2c(c1)[nH]c1ccccc12` has a TD50 (mouse, strain B6C3F1, females, in feed, site: forestomach, lesion: papilloma, dosed 96 weeks, study length 104 weeks) of 1290 mg/kg/day, a TD50 (mouse, strain B6C3F1, females, in feed, site: forestomach, lesion: several types, types named in the paper, dosed 96 weeks, study length 104 weeks) of 1960 mg/kg/day and a TD50 (mouse, strain B6C3F1, females, in feed, site: liver, lesion: hepatocellular carcinoma, dosed 96 weeks, study length 104 weeks) of 102 mg/kg/day. For the same compound, the TD50 (mouse, strain B6C3F1, males, in feed, site: forestomach, lesion: papilloma, dosed 96 weeks, study length 104 weeks) was 7030 mg/kg/day, the TD50 (mouse, strain B6C3F1, males, in feed, site: forestomach, lesion: several types, types named in the paper, dosed 96 weeks, study length 104 weeks) was 2790 mg/kg/day and the TD50 (mouse, strain B6C3F1, males, in feed, site: forestomach, lesion: squamous-cell carcinoma, dosed 96 weeks, study length 104 weeks) was 4940 mg/kg/day. The TD50 (mouse, strain B6C3F1, males, in feed, site: liver, lesion: hepatocellular carcinoma, dosed 96 weeks, study length 104 weeks) was 424 mg/kg/day.

For `CC1=NN(c2ccccc2)C(=O)C1`, the carcinogen call (mouse, strain B6C3F1, females, in feed, site: any site (literature study), lesion: several types, types named in the paper, dosed 102 weeks, study length 104 weeks) was “negative (inactive)”, the carcinogen call (mouse, strain B6C3F1, males, in feed, site: any site (literature study), lesion: several types, types named in the paper, dosed 102 weeks, study length 104 weeks) was “negative (inactive)” and the carcinogen call (rat, strain Fischer 344, females, in feed, site: any site (literature study), lesion: several types, types named in the paper, dosed 103 weeks, study length 105 weeks) was “negative (inactive)”. For the same compound, the carcinogen call (rat, strain Fischer 344, males, in feed, site: any site (literature study), lesion: several types, types named in the paper, dosed 103 weeks, study length 105 weeks) was “negative (inactive)” and the TD50 (rat, strain Fischer 344, males, in feed, site: liver, lesion: hepatocellular adenoma + hepatocellular carcinoma + neoplastic nodule, dosed 103 weeks, study length 105 weeks) was 3700 mg/kg/day.
